According to US4822805A, “Pyridyl-imidazole compounds which have useful pharmaceutical activity” (Fujisawa Pharmaceutical Co., Ltd., priority 1986, dated 1989):
In brackets after ≈: the same amount, converted by molar mass.

Tests used:
[1] = tested on: atrial strip; experiment: Cardiotonic activity, Test 2: contractile force and heart rate of isolated atrial strip; design: species or system Male Hartley strain guinea-pigs; conditions: Cavia porcellus, 0.5 h; 1 × 10^-5 g/ml; 30° C.; observed for 30 min; percentage before and after dosing
Protocol: Male Hartley strain guinea-pigs, weighing 530-600 g, were killed by bleeding and the heart was removed. An atrial strip was removed and suspended in an organ bath containing 50 ml of Tyrode's solution maintained at 30° C. and aerated with a gas mixture of 95% O2 -5% CO2. The atrium was connected to a strain gauge under an initial tension of 0.4-0.6 g. […] The effect was expressed as percentage values before and after dosing.

[2] = tested on: left ventricular pressure (dp/dt max); experiment: Cardiotonic activity, Test 1: dp/dt max change in anesthetized dogs; assay type: in vivo, Mongrel dogs; conditions: 1.0 mg/kg, injected into the femoral vein
Protocol: Mongrel dogs of either sex were anesthetized with sodium pentobarbital, 35 mg/kg, i.p.. The animals were allowed to breathe spontaneously. The left carotid artery was isolated and a catheter (USCI, #8F) filled with heparinized saline was inserted and advanced into the left ventricle. The catheter was connected to a pressure transducer (Nihonkohden, MPU-0.5A) to measure the left ventricular pressure, from which dp/dt max was derived by analog computing. The measure the systemic blood pressure the left femoral artery was cannulated. The blood pressure pulse was used to trigger a heart rate meter. Another catheter was positioned in the vena cave through right femoral vein for injection of drugs. Systemic blood pressure, left ventricular pressure, dp/dt max and heart rate was recorded simultaneously on a polygram (Nihonkohden, RJG-4008).
Test compound was dissolved in distilled water (0.2 ml/kg) or dimethyl sulfoxide (0.04 ml/kg) and injected into the femoral vein. The parameters after dosing were compared with those during the predosing period.
Test results were represented in terms of percentage of dp/dt max changes (dp/dt M.C.) calculated by following formula. [formula]

[3] = tested on: Platelet aggregation (collagen); experiment: Anti-platelet activity, Test 3: collagen-induced platelet aggregation in blood after oral administration; assay type: in vivo, Male Sprague-Dawley rats; conditions: 32 mg/kg oral, blood collected one hour after; collagen 5.0 μg/ml
Protocol: Male Sprague-Dawley rats weighing about 250 g were used after overnight fasting. One hour after oral administration of test compound or vehicle of test compound (control), blood was collected into a tube containing 0.1 vol. of 3.8% sodium citrate. To the 0.45 ml of blood, 0.05 ml of collagen (final concentration 5.0 μg/ml) was added and then incubated for 5 min. at 37° C. under shaking. The reaction was terminated by addition of 1 ml of 10 mM phosphate buffered saline (pH 7.4) containing 11.5 mM EDTA and 1% formalin. The reaction mixture was centrifuged at 70 xg for 5 min. and platelet count of upper phase was measured by Technicon Auto Analizer.
Platelet aggregation was calculated according to the following formula: [formula] A: Platelet count after addition of vehicle of collagen B: Platelet count after addition of collagen.
Inhibition of the test compound was calculated according to the following formula. [formula] C: Platelet aggregation (%) of control D: Platelet aggregation (%) of Test compound.

[4] = tested on: carrageenin foot edema; experiment: Anti-inflammatory activity, Test 5: carrageenin foot edema; assay type: in vivo, Male Sprague-Dawley rats; conditions: 32 mg/kg oral, 60 minutes before phlogogen; edema volume 3 hours after phlogogen; 1% carrageenin
Protocol: Male Sprague-Dawley rats weighing about 180 g were used in groups of five. Paw edema was induced by subplantar injection of 1% carrageenin (0.1 ml/rat) into the right hind paw in carrageenin foot edema. The test compound was suspended in methylcellulose and administered orally 60 minutes before halogogen. Paw volume was measured with plethysmometer (Ugo Basil Co., Ltd.) by water displacement immersing the paw to the lateral malleolus. The difference of paw volume before and 3 hours after the phlogogen was designated as edema volume.
The data was analyzed statistically by student's t-test.

[5] = tested on: Platelet aggregation (9,11-azo PGH2); experiment: Anti-platelet activity, Test 4: 9,11-azo PGH2-induced platelet aggregation in platelet rich plasma; assay type: cell-based, rabbits; conditions: Oryctolagus cuniculus, rabbit PRP, 9,11-azo PGH2 1.0 μM, 37° C.
Protocol: The blood was collected from the carotid artery of rabbits into plastic vessels containing 0.1 volume of 3.8% sodium citrate. Platelet rich plasma (PRP) was prepared by centrifugation at 150 g for 15 minutes. Platelet aggregation was investigated by using the turbidimetric method with an aggregometer (NKK HEMATRACER 1). To the 225 μl of PRP, 25 μl of test compound solution was added, and then stirred at 1000 rpm for 2 minutes at 37° C. To the solution 5 μl of 9,11-azo PGH2 (final 1.0 μM) was added as an aggregating inducer.

SMILES: COc1ccc(-c2nc(-c3cccnc3)c(C)[nH]2)c(OC)c1 [Compound a, 2-(2,4-Dimethoxyphenyl)-5-methyl-4-(3-pyridyl)imidazole]
- activation at 10 µg/mL [1]: 45%
- inhibition at 10 µg/mL [1]: 21.2%
- dp/dt M.C. (percentage of dp/dt max changes) [2]: 82%

SMILES: CCc1nc(-c2ccc(OC)cc2OC)[nH]c1-c1cccnc1 [Compound b, 2-(2,4-Dimethoxyphenyl)-4-ethyl-5-(3-pyridyl)imidazole]
- dp/dt M.C. (percentage of dp/dt max changes) [2]: 133%

SMILES: COc1cc(SC)ccc1-c1nc(-c2cccnc2)c(C)[nH]1 [Compound c, 2-(2-Methoxy-4-methylthiophenyl)-5-methyl-4-(3-pyridyl)imidazole]
- dp/dt M.C. (percentage of dp/dt max changes) [2]: 167%

SMILES: CCc1[nH]c(-c2ccc(OC)c(OC)c2)nc1-c1ccccn1 [Compound d, 2-(3,4-Dimethoxyphenyl)-5-ethyl-4-(2-pyridyl)imidazole]
- activation at 10 µg/mL [1]: 51.6%
- inhibition at 10 µg/mL [1]: 14.1%

SMILES: COc1ccc(-c2nc(-c3ccncc3)c(C)[nH]2)c(OC)c1 [Compound e, 2-(2,4-Dimethoxyphenyl)-5-methyl-4-(4-pyridyl)imidazole]
- activation at 10 µg/mL [1]: 58%
- inhibition at 10 µg/mL [1]: 26.8%

SMILES: CCc1[nH]c(-c2ccc(OC)cc2OC)nc1-c1ccncc1 [Compound f, 2-(2,4-Dimethoxyphenyl)-5-ethyl-4-(4-pyridyl)imidazole]
- activation at 10 µg/mL [1]: 61.1%
- inhibition at 10 µg/mL [1]: 30.7%

SMILES: COc1cc(NC(C)=O)c(Cl)cc1-c1nc(-c2cccnc2)c(C)[nH]1 [Compound g, 2-(4-Acetamido-5-chloro-2-methoxyphenyl)-5-methyl-4-(3-pyridyl)imidazole]
- Inhibition (platelet aggregation) [3]: 87.6%

SMILES: COc1ccccc1-c1nc(-c2cccnc2)c(C)[nH]1 [Compound h, 2-(2-Methoxyphenyl)-5-methyl-4-(3-pyridyl)imidazole]
- Inhibition (paw edema) [4]: 62.7%

SMILES: Cc1nc(-c2ccccc2F)[nH]c1-c1cccnc1 [Compound i, 2-(2-Fluorophenyl)-4-methyl-5-(3-pyridyl)imidazole]
- Inhibition (platelet aggregation) [3]: 100%
- IC50 [5]: 0.11 µg/mL (≈ 0.434 µM)

SMILES: CC(=O)Nc1ccccc1-c1nc(C)c(-c2cccnc2)[nH]1 [Compound j, 2-(2-Acetamidophenyl)-4-methyl-5-(3-pyridyl)imidazole]
- Inhibition (platelet aggregation) [3]: 91.3%
- IC50 [5]: 0.39 µg/mL (≈ 1.33 µM)

SMILES: COc1cc(Cl)ccc1-c1nc(-c2cccnc2)c(C)[nH]1 [Compound k, 2-(4-Chloro-2-methoxyphenyl)-5-methyl-4-(3-pyridyl)imidazole]
- IC50 [5]: 0.16 µg/mL (≈ 0.534 µM)
- Inhibition (paw edema) [4]: 72.3%
